Results published in patent US7268162B2, “Aloe-emodin derivatives and their use in the treatment of neoplasias” (Universita' Degli Studi di Padova, priority 2001, dated 2007).
Structures can show the parent of a compound that is named as a salt.

How the values were obtained:
[1] = tested on: tumour cells of neuroectodermal origin; conditions: Italian patent application No. MI 2000A001216; cited from earlier work
[2] = water and physiological solution; cited from earlier work
IMR5 [3] = assay: In vitro cytotoxicity assay (MTT), neuroblastoma IMR-5; assay type: cell-based, human; conditions: medium with 10% inactivated FBS
Experimental: (§1) In vitro cytotoxicity assays were conducted on different tumour cell lines, also of neuroectodermal origin. Purpose of said assays was also to check the compounds cytotoxic action and specificity. […] The aforesaid cells were assayed with the following compounds: • AM: ester of maleic acid (ex. 1) dissolved in DMSO • AS: ester of succinic acid (ex. 2) dissolved in DMSO • ADG: ester of diglycolic acid (ex. 3) dissolved in DMSO • AF: ester of phthalic acid (ex. 4) dissolved in DMSO • ABT: […] AE phosphoric ester (ex.12) dissolved in HEPES • AED: AE acetal with daunosamine (ex.13) dissolved in HEPES The cells, cultured according to known methods, were seeded 24 hrs prior to treatment with the various derivatives at a concentration of 1000 cells/100 μl. For molecules dissolved in dimethylsulphoxide, DMSO, the concentration of the initial stock was 200 mM and for molecules dissolved in a HEPES buffer and in the physiological solution was 1 mM. […] For each assay, a control was carried out with the medium alone (RPMI with 10% inactivated fetal bovine serum, FBS, and 1% penicillin/streptomycin). […] The cells viability was assessed by the MTT dye assay. […] The EC50 values (μM) referred to each compound and cell line are given.

SJ-N-KP [4] = assay: In vitro cytotoxicity assay (MTT), neuroblastoma SJ-N-KP; assay type: cell-based, human; conditions: 72 hrs exposure, medium with 10% inactivated FBS
Experimental: as §1

LoVo 109 [5] = assay: In vitro cytotoxicity assay (MTT), colon adenocarcinoma LoVo 109; assay type: cell-based, human; conditions: 72 hrs exposure, medium with 10% inactivated FBS
Experimental: as §1

SJ-N-KP [6] = assay: In vitro cytotoxicity assay (MTT), neuroblastoma SJ-N-KP; assay type: cell-based, human; conditions: 72 hrs exposure, medium with non-inactivated FBS (esterase)
LoVo 109 [7] = assay: In vitro cytotoxicity assay (MTT), colon adenocarcinoma LoVo 109; assay type: cell-based, human; conditions: 72 hrs exposure, medium with non-inactivated FBS (esterase)
IMR5 [8] = assay: In vitro cytotoxicity assay (MTT), neuroblastoma IMR-5; assay type: cell-based, human; conditions: 72 hrs exposure, medium with non-inactivated FBS (esterase)

O=C1c2cccc(O)c2C(=O)c2c(O)cc(CO)cc21 [Aloe-emodin, aloe-emodin]
cytotoxicity [1]: specific cytotoxicity to tumour cells of neuroectodermal origin | solubility [2]: hardly soluble in water and in the physiological solution

O=C(O)C=CC(=O)OCc1cc(O)c2c(c1)C(=O)c1cccc(O)c1C2=O [Ex. 1: AM, mono-(4,5-dihydroxy-9,10-dioxo-9,10-dihydroanthracen-2-ylmethyl)ester but-2-endioic acid]
EC50 (IMR5 [3]; 72 hrs exposure): 270 to 280 µM | EC50 (SJ-N-KP [4]): 270 to 280 µM

O=C(O)CCC(=O)OCc1cc(O)c2c(c1)C(=O)c1cccc(O)c1C2=O [Ex. 2: AS, mono-(4,5-dihydroxy-9,10-dioxo-9,10-dihydroanthracen-2-ylmethyl)ester succinic acid]
EC50 (IMR5 [3]; 72 hrs exposure): 40 µM | EC50 (LoVo 109 [5]): 43 µM | EC50 (SJ-N-KP [4]): 43 µM

O=C(O)COCC(=O)OCc1cc(O)c2c(c1)C(=O)c1cccc(O)c1C2=O [Ex. 3: ADG, (4,5-Dihydroxy-9,10-dioxo-9,10-dihydroanthracen-2-ylmethoxycarbonylmethoxy) acetic acid]
EC50 (IMR5 [3]; Homo sapiens, IMR-5, 72 hrs exposure): 10 µM | EC50 (LoVo 109 [5]; Homo sapiens, LoVo): 20 µM | EC50 (SJ-N-KP [4]; Homo sapiens): 10 µM

O=C(O)c1ccccc1C(=O)OCc1cc(O)c2c(c1)C(=O)c1cccc(O)c1C2=O [Ex. 4: AF, mono-(4,5-dihydroxy-9,10-dioxo-9,10-dihydroanthracen-2-ylmethyl)ester phthalic acid]
EC50 (IMR5 [3]; 72 hrs exposure): 250 µM | EC50 (SJ-N-KP [6]): 50 µM | EC50 (LoVo 109 [7]): 50 µM | EC50 (SJ-N-KP [4]): 300 µM | EC50 (IMR5 [8]): 50 µM

O=C(O)c1ccc(C(=O)OCc2cc(O)c3c(c2)C(=O)c2cccc(O)c2C3=O)c(C(=O)O)c1 [Ex. 5: ABT, 1-(4,5-dihydroxy-9,10-dioxo-9,10-dihydroanthracen-2-ylmethyl)ester 1,2,4-Benzenetricarboxylic acid]
EC50 (IMR5 [3]; 72 hrs exposure): 160 µM | EC50 (SJ-N-KP [4]): 150 µM

N[C@@H](Cc1c[nH]c2ccccc12)C(=O)OCc1cc(O)c2c(c1)C(=O)c1cccc(O)c1C2=O [Ex. 6: TRIP, AE Ester with Tryptophan]
EC50 (IMR5 [3]; 72 hrs exposure): 10 µM | EC50 (LoVo 109 [5]): 8 to 9 µM | EC50 (SJ-N-KP [4]): 8 to 9 µM

CC(N)C(=O)OCc1cc(O)c2c(c1)C(=O)c1cccc(O)c1C2=O (centres unmarked) [Ex. 7: ALA-NH2, AE Ester with Alanine]
EC50 (IMR5 [3]; 72 hrs exposure): 300 µM | EC50 (SJ-N-KP [4]): 264 µM

CC[C@H](C)[C@H](N)C(=O)OCc1cc(O)c2c(c1)C(=O)c1cccc(O)c1C2=O [Ex. 8: PJ8, AE Ester with Isoleucine]
EC50 (IMR5 [3]; 72 hrs exposure): 9 µM | EC50 (LoVo 109 [5]): 20 µM | EC50 (SJ-N-KP [4]): 9 µM

NC(Cc1ccc(O)cc1)C(=O)OCc1cc(O)c2c(c1)C(=O)c1cccc(O)c1C2=O (centres unmarked) [Ex. 9: TIR-NH2, AE Ester with Tyrosine]
EC50 (LoVo 109 [5]): 26 µM | EC50 (SJ-N-KP [4]): 96.4 µM

C[C@H](N)C(=O)OCc1cc(O)c2c(c1)C(=O)c1cccc(O)c1C2=O [Ex. 10: EM9, ala-aloe-emodin trifluoroacetate]
EC50 (IMR5 [3]; 72 hrs exposure): 6.7 µM | EC50 (LoVo 109 [5]): 5 µM | EC50 (SJ-N-KP [4]): 6.7 µM

C[C@H](N)C(=O)OCc1cc(O)c2c(c1)C(=O)c1cccc(O)c1C2=O [Ex. 11: ALA, ala-aloe-emodin hydrochloride]
EC50 (IMR5 [3]; 72 hrs exposure, hydrochloride): 200 µM | EC50 (IMR5 [3]; 72 hrs exposure, listed as Ex. 11: ALA-HCI, hydrochloride): 70.6 µM | EC50 (LoVo 109 [5]): 200 µM | EC50 (SJ-N-KP [4]; hydrochloride): 200 µM | EC50 (SJ-N-KP [4]; listed as Ex. 11: ALA-HCI, hydrochloride): 70.6 µM

O=C1c2cccc(O)c2C(=O)c2c(O)cc(COP(=O)(O)O)cc21 [Ex. 12: AEP, AE Ester with Phosphoric Acid]
EC50 (IMR5 [3]; 72 hrs exposure): 10 µM | EC50 (LoVo 109 [5]): 20 µM | EC50 (SJ-N-KP [4]): 12 µM

AE Acetal with Daunosamine [Ex. 13: AED]
EC50 (IMR5 [3]; 72 hrs exposure): 5 µM | EC50 (LoVo 109 [5]): 10 µM | EC50 (SJ-N-KP [4]): 5 µM
